Consider three compounds from paper PMC11054132, “Neuroprotective Effects of Chemical Constituents of Leaves of Euonymus hamiltonianus Wall” (Plants, 2024).

Entries after “also recorded” stand apart in the source; their conditions may differ.

Series [1] relates to Aβ42 production in APPsw-transfected HeLa cells. Put plainly: Aβ42 production (ELISA kit) in APPsw-transfected HeLa cells. The series is classed as cell-based. The note with it: Homo sapiens, HeLa, 8 h, APPsw-transfected HeLa cells; means ± SDs (n = 3). How it is done: APPsw-transfected HeLa cells were cultured with the isolated compounds or DMSO in Dulbecco’s modified Eagle medium (DMEM, Welgene, Gyeongsan-si, Republic of Korea) for 8 h, and then the cell culture supernatants were collected for the following analyses. For the detection of Aβ secretion, kits for Aβ42 (KHB3442) and Aβ40 (KHB3482) were purchased from the Invitrogen Company and used according to the supplier’s instructions.
(§1) For the Aβ-Hela-APPsw model, Hela cells were stably transfected with an APP carrying the Swedish mutation (APPsw) using BioT (Bioland Scientific LLC, Paramount, CA, USA) according to the manufacturer’s instructions, which was provided by Prof. Tae-Wan Kim (Department of Pathology, Columbia University of Medical Center, New York, NY 10032, USA). APPsw-transfected HeLa cells were grown in DMEM supplemented with 10% fetal bovine serum (FBS; Thermo Fisher Scientific, Lafayette, CA, USA), 1% penicillin/streptomycin (Thermo Fisher Scientific, Lafayette, CA, USA), 260 μg/mL Zeocin, and 400 μg/mL G418. The cells were maintained at 37 °C under a humidified atmosphere of 5% CO2. The stock sample solution was dissolved in DMSO and kept at −20 °C and diluted to the final concentration in fresh medium before each experiment. For the cell viability assay, Hela cells were cultured in 96-well plates for 24 h and then various concentrations of comp 27 (0–10 μM) were treated for 12 h. The EZ-Cytox kit (DAEILLAB, Cheongwon, Republic of Korea) was applied to detect the cell viability, following the manufacturer’s instructions, and measurements were taken by a microplate reader (BIO-TEK® Dower-Wave; BioTek, Winooski, VT, USA) under absorbance at 450 nm. The results were presented as the percentage of MTT reduction, compared with the control group as 100%. For the LPS-induced microglia model, the BV-2 mouse microglia cell line was provided by Prof. Lee Sung Jung’s research team in the College of Medicine, Seoul National University, and was cultured in DMEM-F12 with 5% FBS and 1% penicillin/streptomycin at 37 °C under a humidified atmosphere containing 5% CO2. And the cell viability assay was performed using the Aβ-Hela-APPsw model.
For orientation: In an ELISA, binding on a coated surface is turned into a signal by an enzyme label.

Series [2] relates to NO production in LPS-activated BV-2 microglial cells. Put plainly: NO production (Griess reaction) in LPS-stimulated BV-2 microglial cells. The series is classed as cell-based, mouse. The note with it: for IC50: pretreated 1 h, 100 ng/mL LPS (footnote 24 h; text 12 h), means ± SDs (n = 3); for Inhibitory effect on NO production (in words): LPS-stimulated BV-2 microglial cells. The method, then:
The anti-inflammatory effects of the fourteen compounds (1–14) isolated from E. hamiltonianus were evaluated in activated BV-2 microglial cells by the production of NO and proinflammatory cytokines. […] […] The compounds were continuously assessed to determine whether they suppressed the expression of iNOS and COX-2 in LPS-stimulated BV-2 microglial cells. The cells were stimulated with LPS in the presence of these compounds at various concentrations, and the expression levels of iNOS and COX-2 were determined by Western blotting. […] Thus, compound 3 may be considered a potential anti-inflammatory agent.
as §1, with “For the cell viability assay, Hela cells were cultured in 96-well plates for 24 h and then various concentrations of comp 27 (0–10 μM) were treated for 12 h.” left out
[…] The media were collected and centrifuged at 13,000 rpm for the removal of dead cells. The supernatants were collected and mixed with an equal volume (50 μL) of Griess reagents (1% sulfanilamide and N-(1-naphthyl) ethylenediamine dihydrochloride in 2.5% H3PO4) for 5 min at room temperature, and the Nitric Oxide concentration was measured at 540 nm using a microplate reader and compared with the sodium nitrite standard curve.
On the technique in general: The Griess reaction detects nitrite, a stable product of nitric oxide.

Series [3] is described as follows: Cytotoxicity (MTT assay) in BV-2 microglial cells. The series is classed as cell-based. The note with it: mouse; BV-2 microglial cells, MTT assay; read-out: IC50 Value (µM) Cytotoxicity. Background: Tetrazolium dyes change colour on reduction, which living cells bring about.
The nature of series [4]: Storage stability of isolated compound by LC-MS. The series is classed as physicochemical. The note with it: stored 27 days (compound 2) or a significant length of time (compound 1), dried powder and DMSO solution. How it is done:
In this study, qualitative profile analysis was performed on the 30% EtOH crude extract of the leaves of E. hamiltonianus using HPLC. The isolated phytochemicals, 1–14, were used as standards and compared to the crude extract profile represented by a high-performance liquid chromatogram (Figure 3). […] With comparative UV area normalization, compound 2 was confirmed as a pure compound initially when isolated (Figure S3.8). […] For reconfirmation, LC-MS analyses of both the dried powdered form of the compound when isolated and the compound in DMSO solution were performed (Figure S3.9), both sets of results showing signs of degradation. Compound 2 was degraded into three separate peaks, and the original compound 2 indicated by m/z 759.2 was verified by LC-MS analysis, and the peaks of 2a and 2b were indicated by m/z 465.1 and 627, respectively. […] Due to the close resemblance of compound 2 to compound 1, it was investigated in the same manner after a significant length of time.

Series [5] relates to iNOS. Put plainly: Western blot of LPS-induced iNOS expression in BV-2 microglial cells. The series is classed as cell-based, mouse. The note with it: LPS-stimulated BV-2 microglial cells, various concentrations (1.0, 2.0, 4.0 µM). How it is done:
(§2) The anti-inflammatory effects of the fourteen compounds (1–14) isolated from E. hamiltonianus were evaluated in activated BV-2 microglial cells by the production of NO and proinflammatory cytokines. BV-2 microglial cells were stimulated with 0.1 µg/mL LPS for 12 h in the presence of the compounds at various concentrations, and the levels of NO in the culture supernatants were measured using Griess reactions. […] The compounds were continuously assessed to determine whether they suppressed the expression of iNOS and COX-2 in LPS-stimulated BV-2 microglial cells. The cells were stimulated with LPS in the presence of these compounds at various concentrations, and the expression levels of iNOS and COX-2 were determined by Western blotting. […] Thus, compound 3 may be considered a potential anti-inflammatory agent.
The total protein samples (10 μg) were loaded in sodium dodecyl sulfate polyacrylamide gel electrophoresis (SDS–PAGE) gels with 10% acrylamide/bis and transferred to polyvinylidene difluoride membranes (Millipore, Burlington, MA, USA). Then, the membranes were blocked with 5% silky milk dissolved in TBST (Tris Buffered saline Tween) for 1 h under room temperature and incubated overnight at 4 °C with specific primary antibodies (1:1000). After being washed with TBST, the membranes were incubated with secondary HRP-conjugated IgG (1:2000) at room temperature for 1 h and visualized using enhanced chemiluminescence (ECL) reagents (Thermo Fisher Scientific, Lafayette, CA, USA). Densitometry analysis of the bands was performed with the fusion solo system (Vilber, Paris, France). The band densities were determined as the intensities of protein by TotalLab TL120 software v2009 (TotalLab, Newcastle, UK).

For series [6], the system named is COX-2. Put plainly: Western blot of LPS-induced COX-2 expression in BV-2 microglial cells. The series is classed as cell-based, mouse. To be noted: LPS-stimulated BV-2 microglial cells, various concentrations (1.0, 2.0, 4.0 µM). How it is done:
as §2
The total protein samples (10 μg) were loaded in sodium dodecyl sulfate polyacrylamide gel electrophoresis (SDS–PAGE) gels with 10% acrylamide/bis and transferred to polyvinylidene difluoride membranes (Millipore, Burlington, MA, USA). Then, the membranes were blocked with 5% silky milk dissolved in TBST (Tris Buffered saline Tween) for 1 h under room temperature and incubated overnight at 4 °C with specific primary antibodies (1:1000). […] The band densities were determined as the intensities of protein by TotalLab TL120 software v2009 (TotalLab, Newcastle, UK).

The mark [7] stands for this setting: Mus musculus, BV-2, BV-2 microglial cells.

Take `O=c1c(O[C@@H]2O[C@H](CO)[C@@H](O)[C@H](O)[C@H]2O[C@@H]2OC[C@@H](O)[C@H](O)[C@H]2O)c(-c2ccc(O)c(O)c2)oc2cc(O[C@@H]3O[C@H](CO)[C@@H](O)[C@H](O)[C@H]3O)cc(O)c12` [Compound 2, quercetin-3-O-(2″-O-(β-D-xylopyranosyl)-β-D-glucopyranoside)-7-O-β-D-glucopyranoside]: the IC50 in series [1] and in series [2] (setting [7]) was > 100 µM each time. Further, the IC50 at 12 h in series [3] is > 100 µM. Moreover, the “Degradation on storage (in words)” value in series [4] is listed as “showed signs of degradation”.
In the case of `O=c1c(O[C@@H]2O[C@H](CO)[C@H](O)[C@H](O)[C@H]2O)c(-c2ccc(O)c(O)c2)oc2cc(O)cc(O)c12` [Compound 3, quercetin-3-O-β-D-galactopyranoside], the figures for the IC50 in series [2] (BV-2 microglial cells) and in series [2] (setting [7]) were 16.3 ± 2.94 µM and 14.4 µM, respectively. In addition, the “Inhibitory effect on NO production (in words)” value in series [2] is given as “effectively downregulated; also recorded: good inhibitory effects”. Further, the IC50 at 12 h in series [3] was > 100 µM. Besides, the “LPS-induced iNOS protein expression (in words)” value in series [5] was “suppressed; also recorded: most potent inhibitory activity; also recorded: effectively downregulated”. Further, the “LPS-induced COX-2 protein expression (in words)” value in series [6] is given as “suppressed; also recorded: most potent inhibitory activity”.
On to `O=c1c(O[C@@H]2O[C@H](CO)[C@@H](O)[C@H](O)[C@H]2O)c(-c2ccc(O)c(O)c2)oc2cc(O[C@@H]3O[C@H](CO)[C@@H](O)[C@H](O)[C@H]3O)cc(O)c12` [Compound 4, quercetin-3,7-di-O-β-D-glucopyranoside], for which, in series [2], the “Inhibitory effect on NO production (in words)” value is “effectively downregulated; also recorded: good inhibitory effects”. In addition, the IC50 in series [2] (setting [7]) came to 14.4 ± 8.68 µM. The IC50 at 12 h in series [3] was > 100 µM. Further, the “LPS-induced iNOS protein expression (in words)” value in series [5] was “suppressed; also recorded: effectively downregulated”. In addition, the “LPS-induced COX-2 protein expression (in words)” value in series [6] is on record as “suppressed”.

For orientation: IC50 means the concentration needed to halve the response being measured.
